This is an account of results in patent publication US8471005B2 (Cephalon, Inc., priority 2008, dated 2013).

One assay has as its target T1, ALK (Homo sapiens, UniProt Q9UM73).
T1 construct: host or cells: baculovirus expression system
The assay can be described thus: ALK Kinase Assay (ELISA/TRF, PLC-γ substrate). Format: biochemical. To be noted: ALK kinase inhibition, 1 μM ATP; read-out: ALK Potency. Put shortly:
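First, plates are coated with substrate (phospholipase C-γ, 10 μg/mL, TBS). Next, 30 ng/ml ALK initiates phosphorylation for 15 min at 37° C. Then Eu-N1 PT66 antibody is added for detection, and a nonlinear dose-response fit of percent inhibition yields IC50.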
In general terms: ELISA stands for enzyme-linked immunosorbent assay.

In another assay the target is T2, JAK2 (Homo sapiens, UniProt O60674).
T2 construct: host or cells: baculovirus expression system
T2 sequence (O60674 whole entry): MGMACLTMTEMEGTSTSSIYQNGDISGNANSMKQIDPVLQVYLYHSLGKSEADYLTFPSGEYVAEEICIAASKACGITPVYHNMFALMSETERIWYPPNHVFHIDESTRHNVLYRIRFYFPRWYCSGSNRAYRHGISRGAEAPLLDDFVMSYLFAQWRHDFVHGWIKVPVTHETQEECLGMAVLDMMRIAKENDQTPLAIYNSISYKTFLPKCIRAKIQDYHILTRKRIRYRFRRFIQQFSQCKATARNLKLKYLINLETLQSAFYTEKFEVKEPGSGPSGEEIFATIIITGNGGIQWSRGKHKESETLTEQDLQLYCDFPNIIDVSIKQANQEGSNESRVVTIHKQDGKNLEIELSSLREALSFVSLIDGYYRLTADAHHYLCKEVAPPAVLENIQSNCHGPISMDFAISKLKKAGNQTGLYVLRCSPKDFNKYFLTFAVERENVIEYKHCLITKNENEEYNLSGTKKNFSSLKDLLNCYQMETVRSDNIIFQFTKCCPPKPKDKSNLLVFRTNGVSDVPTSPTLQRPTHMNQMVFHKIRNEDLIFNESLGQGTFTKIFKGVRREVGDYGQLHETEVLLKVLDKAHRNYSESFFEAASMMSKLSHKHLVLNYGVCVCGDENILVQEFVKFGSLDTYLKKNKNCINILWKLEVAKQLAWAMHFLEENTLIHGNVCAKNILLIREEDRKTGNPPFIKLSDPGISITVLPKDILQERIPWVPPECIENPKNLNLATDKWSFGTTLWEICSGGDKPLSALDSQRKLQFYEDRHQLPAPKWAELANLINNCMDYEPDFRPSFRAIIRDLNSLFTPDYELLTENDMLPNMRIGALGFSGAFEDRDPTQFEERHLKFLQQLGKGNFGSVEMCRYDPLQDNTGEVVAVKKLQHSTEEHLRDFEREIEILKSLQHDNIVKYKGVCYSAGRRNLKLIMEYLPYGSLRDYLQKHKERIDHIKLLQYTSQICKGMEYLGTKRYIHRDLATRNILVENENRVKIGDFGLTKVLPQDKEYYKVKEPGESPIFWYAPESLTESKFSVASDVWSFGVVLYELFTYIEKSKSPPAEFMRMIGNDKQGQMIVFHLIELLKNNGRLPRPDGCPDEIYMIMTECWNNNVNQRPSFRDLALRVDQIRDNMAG
The assay can be described thus: Recombinant Human JAK2 Kinase Assay (TRF). Format: biochemical. To be noted: JAK2 kinase inhibition, 0.2 μM ATP; read-out: JAK2 Potency. In short, it runs like this:
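Kinase activity of baculovirus-expressed JAK2 is followed on a surface-immobilised biotinylated peptide, with the reaction run for 20 min at room temperature in buffer containing 0.2 μM ATP and manganese. Phosphorylation is read with Eu-N1 PY100 antibody.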

T1 sequence (Q9UM73 19-1620): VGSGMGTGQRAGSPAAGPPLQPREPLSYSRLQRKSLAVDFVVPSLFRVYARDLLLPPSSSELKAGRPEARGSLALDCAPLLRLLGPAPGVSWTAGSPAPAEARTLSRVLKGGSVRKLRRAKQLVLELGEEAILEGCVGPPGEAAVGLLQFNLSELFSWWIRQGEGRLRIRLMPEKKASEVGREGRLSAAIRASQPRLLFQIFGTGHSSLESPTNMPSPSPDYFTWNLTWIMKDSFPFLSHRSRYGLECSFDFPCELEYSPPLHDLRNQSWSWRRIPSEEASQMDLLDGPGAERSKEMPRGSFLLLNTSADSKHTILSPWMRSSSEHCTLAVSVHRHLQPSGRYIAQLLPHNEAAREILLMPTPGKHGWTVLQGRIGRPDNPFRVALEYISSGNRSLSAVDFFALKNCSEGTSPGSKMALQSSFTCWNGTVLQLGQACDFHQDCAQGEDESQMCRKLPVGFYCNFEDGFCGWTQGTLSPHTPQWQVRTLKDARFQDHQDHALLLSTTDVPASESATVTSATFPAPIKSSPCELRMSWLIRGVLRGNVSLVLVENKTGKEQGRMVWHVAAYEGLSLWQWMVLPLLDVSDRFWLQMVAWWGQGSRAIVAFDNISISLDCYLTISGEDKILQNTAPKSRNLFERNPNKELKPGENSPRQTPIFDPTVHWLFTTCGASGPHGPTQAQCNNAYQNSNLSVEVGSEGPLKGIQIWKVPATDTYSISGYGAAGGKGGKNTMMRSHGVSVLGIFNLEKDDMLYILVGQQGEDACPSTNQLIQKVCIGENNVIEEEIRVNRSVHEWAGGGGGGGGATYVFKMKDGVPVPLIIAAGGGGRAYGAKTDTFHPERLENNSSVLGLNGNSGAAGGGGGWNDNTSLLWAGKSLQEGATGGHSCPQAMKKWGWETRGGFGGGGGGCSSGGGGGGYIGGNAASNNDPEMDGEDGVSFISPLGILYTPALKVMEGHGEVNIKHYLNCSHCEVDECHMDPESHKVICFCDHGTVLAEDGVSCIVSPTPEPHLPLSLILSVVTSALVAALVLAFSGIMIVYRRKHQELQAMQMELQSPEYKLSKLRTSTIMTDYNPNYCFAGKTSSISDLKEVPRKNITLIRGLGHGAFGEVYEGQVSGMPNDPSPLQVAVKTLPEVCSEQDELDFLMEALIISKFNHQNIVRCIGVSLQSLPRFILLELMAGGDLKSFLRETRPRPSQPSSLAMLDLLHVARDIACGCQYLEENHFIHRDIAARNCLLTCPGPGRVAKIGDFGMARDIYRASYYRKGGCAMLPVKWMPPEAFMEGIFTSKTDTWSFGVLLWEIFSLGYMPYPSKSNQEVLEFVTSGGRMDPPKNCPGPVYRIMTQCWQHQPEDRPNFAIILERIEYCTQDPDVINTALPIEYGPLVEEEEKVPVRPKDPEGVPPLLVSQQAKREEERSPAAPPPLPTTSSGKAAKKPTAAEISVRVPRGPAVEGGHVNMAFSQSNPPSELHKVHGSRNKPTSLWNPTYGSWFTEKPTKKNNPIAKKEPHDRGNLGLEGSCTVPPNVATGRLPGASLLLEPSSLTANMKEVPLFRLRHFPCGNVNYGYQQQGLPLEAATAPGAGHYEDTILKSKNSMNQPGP

`O=S(=O)(c1cccc(-c2ccc3cnc(Nc4ccc5nc(CO)[nH]c5c4)nn23)c1)N1CCOCC1` [Example 1068, (6-{7-[3-(Morpholine-4-sulfonyl)-phenyl]-pyrrolo[2,1-f][1,2,4]triazin-2-ylamino}-1H-benzoimidazol-2-yl)-methanol]: the IC50 at ALK is 1 to 10 µM; on JAK2, below 0.1 µM.

`COc1ccc(-c2ccc3cnc(Nc4ccc5nc(CO)[nH]c5c4)nn23)cn1` [Example 1069, {6-[7-(6-Methoxy-pyridin-3-yl)-pyrrolo[2,1-f][1,2,4]triazin-2-ylamino]-1H-benzoimidazol-2-yl}-methanol]: the IC50 at ALK is 1 to 10 µM; at JAK2, below 0.1 µM.

As to `O=S(=O)(c1cccc(-c2ccc3cnc(Nc4ccc5nc(CO)[nH]c5c4)nn23)c1)N1CCCC1` [Example 1070, (6-{7-[3-(Pyrrolidine-1-sulfonyl)-phenyl]-pyrrolo[2,1-f][1,2,4]triazin-2-ylamino}-1H-benzoimidazol-2-yl)-methanol], the IC50 on ALK is 1 to 10 µM; on JAK2, below 0.1 µM.

As for `CN(c1ccccc1-c1ccc2cnc(Nc3ccc4nc(CO)[nH]c4c3)nn12)S(C)(=O)=O` [Example 1071, N-{2-[2-(2-Hydroxymethyl-3H-benzoimidazol-5-ylamino)-pyrrolo[2,1-f][1,2,4]triazin-7-yl]-phenyl}-N-methyl-methanesulfonamide], the figures for the IC50 at ALK and on JAK2 were 0.1 to 1 µM and below 0.1 µM, respectively.

On to `COc1ccc(-c2ccc3cnc(Nc4ccc(C5C(=O)N(C)CCN5C)cc4)nn23)cn1` (stereo not drawn) [Example 1072, 3-{4-[7-(6-Methoxy-pyridin-3-yl)-pyrrolo[2,1-f][1,2,4]triazin-2-ylamino]-phenyl}-1,4-dimethyl-piperazin-2-one], for which the results for the IC50 at ALK and on JAK2 were 1 to 10 µM and below 0.1 µM, respectively.

`CN1CCN(C)C(c2ccc(Nc3ncc4ccc(-c5ccccc5N(C)S(C)(=O)=O)n4n3)cc2)C1=O` (stereo not drawn) [Example 1073, N-(2-{2-[4-(1,4-Dimethyl-3-oxo-piperazin-2-yl)-phenylamino]-pyrrolo[2,1-f][1,2,4]triazin-7-yl}-phenyl)-N-methyl-methanesulfonamide]: the IC50 on ALK is 0.1 to 1 µM; at JAK2, below 0.1 µM.

In the case of `CN1CCN(C)C(c2ccc(Nc3ncc4ccc(-c5cccc(S(=O)(=O)NC(C)(C)C)c5)n4n3)cc2)C1=O` (stereo not drawn) [Example 1074, N-tert-Butyl-3-{2-[4-(1,4-dimethyl-3-oxo-piperazin-2-yl)-phenylamino]-pyrrolo[2,1-f][1,2,4]triazin-7-yl}-benzene sulfonamide], the results for the IC50 at ALK and at JAK2 were 1 to 10 µM and below 0.1 µM, respectively.

Consider `CN1CCN(C)C(c2ccc(Nc3ncc4ccc(-c5cccc(S(=O)(=O)N6CCOCC6)c5)n4n3)cc2)C1=O` (stereo not drawn) [Example 1075, 1,4-Dimethyl-3-(4-{7-[3-(morpholine-4-sulfonyl)-phenyl]-pyrrolo[2,1-f][1,2,4]triazin-2-ylamino}-phenyl)-piperazin-2-one], for which the IC50 was above 10 µM on ALK and below 0.1 µM at JAK2.

Turning to `COc1ccccc1-c1ccc2cnc(Nc3ccc(C4C(=O)N(C)CCN4C)cc3)nn12` (stereo not drawn) [Example 1076, 3-{4-[7-(2-Methoxy-phenyl)-pyrrolo[2,1-f][1,2,4]triazin-2-ylamino]-phenyl}-1,4-dimethyl-piperazin-2-one], the IC50 on ALK was 1 to 10 µM; on JAK2 it was below 0.1 µM.

For `CN1CCN(C)C(c2cccc(Nc3ncc4ccc(-c5cccc(S(=O)(=O)NC(C)(C)C)c5)n4n3)c2)C1=O` (stereo not drawn) [Example 1077, N-tert-Butyl-3-{2-[3-(1,4-dimethyl-3-oxo-piperazin-2-yl)-phenylamino]-pyrrolo[2,1-f][1,2,4]triazin-7-yl}-benzenesulfonamide], the IC50 on ALK was 1 to 10 µM; on JAK2, below 0.1 µM.

As for `CN1CCN(C)C(c2cccc(Nc3ncc4ccc(-c5cccc(S(=O)(=O)N6CCOCC6)c5)n4n3)c2)C1=O` (stereo not drawn) [Example 1078, 1,4-Dimethyl-3-(3-{7-[3-(morpholine-4-sulfonyl)-phenyl]-pyrrolo[2,1-f][1,2,4]triazin-2-ylamino}-phenyl)-piperazin-2-one], the IC50 on ALK is above 10 µM; on JAK2 it was below 0.1 µM.

Turning to `CN1CCN(C)C(c2cccc(Nc3ncc4ccc(-c5cccc(S(=O)(=O)N6CCCC6)c5)n4n3)c2)C1=O` (stereo not drawn) [Example 1079, 1,4-Dimethyl-3-(3-{7-[3-(pyrrolidine-1-sulfonyl)-phenyl]-pyrrolo[2,1-f][1,2,4]triazin-2-ylamino}-phenyl)-piperazin-2-one], the figures for the IC50 at ALK and on JAK2 were 1 to 10 µM and below 0.1 µM, respectively.

In the case of `CN1CCN(C)C(c2cccc(Nc3ncc4ccc(-c5cccc(S(C)(=O)=O)c5)n4n3)c2)C1=O` (stereo not drawn) [Example 1080, 3-{3-[7-(3-Methanesulfonyl-phenyl)-pyrrolo[2,1-f][1,2,4]triazin-2-ylamino]-phenyl}-1,4-dimethyl-piperazin-2-one], the IC50 at ALK was 1 to 10 µM; at JAK2, below 0.1 µM.

On to `COc1ccc(-c2ccc3cnc(Nc4cccc(C5C(=O)N(C)CCN5C)c4)nn23)cn1` (stereo not drawn) [Example 1081, 3-{3-[7-(6-Methoxy-pyridin-3-yl)-pyrrolo[2,1-f][1,2,4]triazin-2-ylamino]-phenyl}-1,4-dimethyl-piperazin-2-one], for which the values for the IC50 at ALK and on JAK2 were above 10 µM and below 0.1 µM, respectively.

Take `COc1ccccc1-c1ccc2cnc(Nc3cccc(C4C(=O)N(C)CCN4C)c3)nn12` (stereo not drawn) [Example 1082, 3-{3-[7-(2-Methoxy-phenyl)-pyrrolo[2,1-f][1,2,4]triazin-2-ylamino]-phenyl}-1,4-dimethyl-piperazin-2-one]: the IC50 at ALK is 1 to 10 µM; on JAK2 it was below 0.1 µM.

On to `CN1CCN(C)C(c2cccc(Nc3ncc4ccc(-c5ccccc5N(C)S(C)(=O)=O)n4n3)c2)C1=O` (stereo not drawn) [Example 1083, N-(2-{2-[3-(1,4-Dimethyl-3-oxo-piperazin-2-yl)-phenylamino]-pyrrolo[2,1-f][1,2,4]triazin-7-yl}-phenyl)-N-methyl-methanesulfonamide], for which the values for the IC50 at ALK and on JAK2 were 1 to 10 µM and below 0.1 µM, respectively.

Consider `CN1CCN(C)C(c2cccc(Nc3ncc4ccc(-c5ccc(S(C)(=O)=O)cc5)n4n3)c2)C1=O` (stereo not drawn) [Example 1084, 3-{3-[7-(4-Methanesulfonyl-phenyl)-pyrrolo[2,1-f][1,2,4]triazin-2-ylamino]-phenyl}-1,4-dimethyl-piperazin-2-one], for which the IC50 on ALK was above 10 µM; on JAK2, below 0.1 µM.

For `CC(C)(C)NS(=O)(=O)c1cccc(-c2ccc3cnc(Nc4ccc(-c5cccnc5)cc4)nn23)c1` [Example 1085, N-tert-Butyl-3-[2-(4-pyridin-3-yl-phenylamino)-pyrrolo[2,1-f][1,2,4]triazin-7-yl]-benzenesulfonamide], the IC50 on ALK is above 10 µM; on JAK2, below 0.1 µM.

For the molecule `O=S(=O)(c1cccc(-c2ccc3cnc(Nc4ccc(-c5cccnc5)cc4)nn23)c1)N1CCCC1` [Example 1086, (4-Pyridin-3-yl-phenyl)-{7-[3-(pyrrolidine-1-sulfonyl)-phenyl]-pyrrolo[2,1-f][1,2,4]triazin-2-yl}-amine], the IC50 is above 10 µM at ALK and below 0.1 µM at JAK2.

In the case of `CS(=O)(=O)c1cccc(-c2ccc3cnc(Nc4ccc(-c5cccnc5)cc4)nn23)c1` [Example 1087, [7-(3-Methanesulfonyl-phenyl)-pyrrolo[2,1-f][1,2,4]triazin-2-yl]-(4-pyridin-3-yl-phenyl)-amine], the IC50 at ALK is 1 to 10 µM; at JAK2, below 0.1 µM.

In the case of `COc1ccc(-c2ccc3cnc(Nc4ccc(-c5cccnc5)cc4)nn23)cn1` [Example 1088, [7-(6-Methoxy-pyridin-3-yl)-pyrrolo[2,1-f][1,2,4]triazin-2-yl]-(4-pyridin-3-yl-phenyl)-amine], the IC50 was 1 to 10 µM at ALK and below 0.1 µM on JAK2.

For `CS(=O)(=O)c1ccc(-c2ccc3cnc(Nc4ccc(-c5cccnc5)cc4)nn23)cc1` [Example 1089, [7-(4-Methanesulfonyl-phenyl)-pyrrolo[2,1-f][1,2,4]triazin-2-yl]-(4-pyridin-3-yl-phenyl)-amine], the IC50 is 1 to 10 µM at ALK and below 0.1 µM on JAK2.

Take `O=S(=O)(c1cccc(-c2ccc3cnc(Nc4ccc(-c5cccnc5)cc4)nn23)c1)N1CCOCC1` [Example 1090, {7-[3-(Morpholine-4-sulfonyl)-phenyl]-pyrrolo[2,1-f][1,2,4]triazin-2-yl}-(4-pyridin-3-yl-phenyl)-amine]: the IC50 was 1 to 10 µM at ALK and below 0.1 µM on JAK2.

In the case of `COc1ccccc1-c1ccc2cnc(Nc3ccc(-c4cccnc4)cc3)nn12` [Example 1091, [7-(2-Methoxy-phenyl)-pyrrolo[2,1-f][1,2,4]triazin-2-yl]-(4-pyridin-3-yl-phenyl)-amine], the IC50 at ALK is 1 to 10 µM; at JAK2, below 0.1 µM.

`CN(c1ccccc1-c1ccc2cnc(Nc3ccc(-c4cccnc4)cc3)nn12)S(C)(=O)=O` [Example 1092, N-Methyl-N-{2-[2-(4-pyridin-3-yl-phenylamino)-pyrrolo[2,1-f][1,2,4]triazin-7-yl]-phenyl}-methanesulfonamide]: the figures for the IC50 on ALK and on JAK2 were 0.1 to 1 µM and below 0.1 µM, respectively.

Consider `COc1ccccc1-c1ccc2cnc(Nc3ccc(OCCN4CCOCC4)cc3)nn12` [Example 1101, [7-(2-Methoxy-phenyl)-pyrrolo[2,1-f][1,2,4]triazin-2-yl]-[4-(2-morpholin-4-yl-ethoxy)-phenyl]-amine], for which the IC50 on ALK and at JAK2 was below 0.1 µM throughout.

With `COc1ccc(-c2ccc3cnc(Nc4ccc(N5CCC(CO)CC5)cc4)nn23)cn1` [Example 1102, (1-{4-[7-(6-Methoxy-pyridin-3-yl)-pyrrolo[2,1-f][1,2,4]triazin-2-ylamino]-phenyl}-piperidin-4-yl)-methanol], the IC50 on ALK is 0.1 to 1 µM; on JAK2 it was below 0.1 µM.
